Data taken from PMC7140380, “Magnolia extract is effective for the chemoprevention of oral cancer through its ability to inhibit mitochondrial respiration at complex I” (Cell Communication and Signaling : CCS, 2020).
pIC50: −log10 of the molar value. Read-outs that look alike come from different tables or passages of the source.

Columns and labels:
CAL 27 cells = assay: Cell proliferation assay (IncuCyte real-time cell confluence); type: cell-based; conditions: Homo sapiens
Procedure: Cells were seeded in 96-well tissue culture plates at 1000–3000 cells per well. Twenty-four hours after seeding, cells were exposed to various concentrations of ME, whereas control cells received fresh medium with an equivalent amount of dimethyl sulfoxide (DMSO) vehicle. Plates were incubated at 37 °C under 5% CO2 and monitored using the IncuCyte Live Cell analysis system (Essen Bioscience, Ann Arbor, MI). […] All assays were performed in triplicate or quadruplicate.

STAT3 = assay: Western blot, STAT3 phosphorylation in CAL 27 cells; type: cell-based, human; conditions: single agents at concentrations close to their IC50 (HNK 20 μM, MGN 40 μM, MHNK 20 μM)
Procedure: (§1) CAL 27 cells were treated with vehicle control (DMSO), HNK (20 μM), MGN (40 μM), and MHNK (20 μM) for 4 h and then lysed with a lysis buffer containing a proteinase inhibitor cocktail (Cell Signaling Technology, Danvers, MA), sheared 10 times by passage through a 28-gauge needle, and centrifuged at 16,000 g for 30 min; the protein concentration of the supernatant was determined by the Bradford method. Lysates, normalized for equal protein loading, were analyzed by the PathScan RTK Signaling Array (Cell Signaling Technology, Danvers, MA) and the LI-COR Odyssey infrared imaging system (LI-COR Biosciences-Biotechnology, Lincoln, NE).
(§2) Cells were lysed with RIPA buffer containing a proteinase inhibitor cocktail (Fisher Scientific, Pittsburg, PA), sheared 10 times by passage through a 28-gauge needle, and centrifuged at 16,000 g for 30 min; the supernatants were normalized for protein concentration as determined by the Bradford method. Lysates were boiled for 5 min and resolved on 4–12% sodium dodecyl sulfate polyacrylamide gel electrophoresis (SDS-PAGE) gels (Invitrogen, Carlsbad, CA). The blots were probed with the following primary antibodies from Cell Signaling Technology (Danvers, MA): p-STAT3-Tyr705, p-STAT3-Ser727, HKII, P70, and P70S6K. The following antibodies were from Santa Cruz Biotechnology (Dallas, TX): anti-actin, anti-Prx1 and anti-Prx3.

p70S6K = assay: Western blot, p70S6K phosphorylation in CAL 27 cells; type: cell-based, human; conditions: single agents at concentrations close to their IC50 (HNK 20 μM, MGN 40 μM, MHNK 20 μM)
Procedure: as §1, §2

hexokinase II (HKII) = assay: Western blot, HKII levels in CAL 27 cells; type: cell-based, human; conditions: single agents at concentrations close to their IC50 (HNK 20 μM, MGN 40 μM, MHNK 20 μM)
Procedure: as §1, §2

4NQO-induced oral cancer = assay: 4NQO-induced oral carcinogenesis in C57BL/6 J mice; type: in vivo; conditions: 20 mg/kg oral
Procedure: Oral tumors were induced by exposing mice to 4NQO at a dose of 50 μg/mL in drinking water for 16 consecutive weeks. One week following the first dose of 4NQO, mice were given ME or the individual active components in ME via oral administration (five days/week for the next 20 consecutive weeks). Animal body weights and 4NQO-water consumption were monitored weekly. 21 weeks after the start of 4NQO treatment, mice were imaged by MRI. Mice were euthanized and oral tissues were collected to assess total oral tumor volume (sum of V) for each mouse. A portion of normal appearing tissue and oral tumor from each mouse were flash frozen in liquid nitrogen for molecular analysis. Remaining oral tissues were embedded in paraffin for pathologic analysis as previously described and for immunohistochemistry (IHC) analysis of biomarkers. In addition, the oral cavity, esophagus, stomach/forestomach, lung, and other major organs were examined carefully for any signs of abnormality.
Mice were imaged using a 9.4 T MRI (Bruker, Billerica, MA) with a custom birdcage style Quadrature coil (Doty Scientific, Columbia, SC). Mice were anesthetized (2 min) initially in a chamber using a mixture of oxygen (3 L/min) and isofluorane (4%). Once an animal was fully anesthetized, optical lubricant was placed on each eye to prevent drying. […]

[1] = CAL-27, read-out: IC50 as single agents, cell proliferation

Structure (SMILES) | pIC50 (CAL 27 cells; CAL 27 cells, single agents, read-out: IC50 as single agents, cell proliferation) | phosphorylation of STAT3 (p-STAT3 Ser727) (STAT3) | pIC50 (CAL 27 cells; [1]) | phosphorylation of p70S6K (p70S6K) | levels of hexokinase II (HKII) (hexokinase II (HKII)) | suppression of 4NQO-induced oral tumors as sole agent, compared with the other single agents (4NQO-induced oral cancer)
C=CCc1ccc(O)c(-c2ccc(O)c(CC=C)c2)c1 [HNK, 5,3′-diallyl-2,4′-dihydroxybiphenyl] | 4.72 | inhibited | – | – | – | –
C=CCc1ccc(O)c(-c2cc(CC=C)ccc2O)c1 [MGN, 5,5′-diallyl-2,2′-dihydroxybiphenyl] | – | – | 4.31 | inhibited | – | –
C=CCc1ccc(O)c(-c2ccc(OC)c(CC=C)c2)c1 [MHNK, 3,5′-diallyl-2′-hydroxy-4-methoxybiphenyl] | – | – | 4.72 | – | decreased | greatest effect
